Here are results for four compounds from EPA's ToxRefDB 2.

Molecules are shown by their SMILES. Bounds are passed on as bounds.

Usually LOAEL stands for the lowest tested level that showed an adverse finding. As a reminder, the NOAEL is the highest dose or exposure tested at which no adverse effect was seen.

The subject of data set [1] is mouse. As to conditions: Combined chronic toxicity/carcinogenicity, b6c3f1, Oral, Gavage/Intubation, dose end: 103 week, group: systemic.
Data set [2] relates to rat. As to conditions: Subchronic oral toxicity in rodents, Fischer, Gavage/Intubation, dose end: 13 week, group: systemic, systemic / hematology / erythrocyte (rbc) count differential / erythrocyte (rbc) + systemic / hematology / hematocrit (hct) / hematocrit (….
Data set [3] has as its system rat. As to conditions: Combined chronic toxicity/carcinogenicity; fischer; Oral; Gavage/Intubation; dose end: 103 week; group: systemic; systemic / hematology / erythrocyte (rbc) count differential / erythrocyte (rbc) + systemic / hematology / hematocrit (hct) / hematocrit (….
Data set [4] relates to mouse. The conditions noted are these: Subchronic oral toxicity in rodents, b6c3f1, Gavage/Intubation, dose end: 13 week, group: systemic.
The test system of data set [5] is dog. As to conditions: Chronic toxicity, beagle, Oral, Feed, dose end: 52 week, group: systemic, systemic / in life observation / clinical signs / feces.
Data set [6] deals with rat. As to conditions: Combined chronic toxicity/carcinogenicity, fischer, Oral, Feed, dose end: 2 year, group: systemic.
In data set [7] the test system is rat. The conditions noted are these: Subchronic oral toxicity in rodents, wistar, Feed, dose end: 13 week, group: systemic.
Data set [8] deals with mouse. The conditions noted are these: Prenatal developmental toxicity study, other, Injection, Intraperitoneal, dose end: 15 GD.
Data set [9] has as its system rat. As to conditions: Fertility (Segment I); wistar; Injection; Subcutaneous; group: parental; systemic / organ weight / prostate / nos.
Data set [10] deals with rabbit. As to conditions: Prenatal developmental toxicity study, new zealand white, Oral, Gavage/Intubation, dose end: 19 GD, group: maternal.
Data set [11] relates to rat. The conditions noted are these: Subchronic oral toxicity in rodents, sprague dawley, Feed, dose end: 3 month, group: systemic, systemic / clinical chemistry / glucose / glucose + systemic / hematology / erythrocyte (rbc) count differential / erythrocyte (rbc) + ….
Data set [12] has as its system dog. As to conditions: Subchronic oral toxicity in nonrodent, beagle, Feed, dose end: 15 week, group: systemic, systemic / organ weight / liver / absolute + systemic / organ weight / liver / relative to body weight + systemic / pathology microscopic / ….
The subject of data set [13] is rat. The conditions noted are these: Prenatal developmental toxicity study, other, Oral, Gavage/Intubation, dose end: 15 GD.
Where [14] appears, read: systemic / pathology microscopic / blood / lymphoma malignant + systemic / pathology microscopic / kidney / hemosiderosis + systemic / ….
Setting [15] is: systemic / pathology microscopic / blood / lymphoma malignant + systemic / pathology microscopic / liver / hematopoietic cell proliferation….
The mark [16] stands for this setting: systemic / hematology / erythrocyte (rbc) count differential / erythrocyte (rbc) + systemic / hematology / hematocrit (hct) / hematocrit (….
The mark [17] stands for this setting: systemic / hematology / hematocrit (hct) / hematocrit (hct) + systemic / pathology microscopic / spleen / hematopoietic cell proliferation….
[18] abbreviates: discoloration + systemic / hematology / blood clotting / blood clotting - activated….
The mark [19] stands for this setting: systemic / clinical chemistry / urea nitrogen / urea nitrogen.
[20] abbreviates: systemic / hematology / platelet / platelet + systemic / in life observation / body weight / body weight + systemic / in life observation / ….
[21] abbreviates: systemic / clinical chemistry / sodium / sodium.
The mark [22] stands for this setting: systemic / hematology / blood clotting / blood clotting - prothrombin time + systemic / hematology / blood clotting / blood clotting - ….
Setting [23] is: group: developmental, developmental / developmental malformation / bone / misshapen + developmental / developmental malformation / bone / short + developmental / ….
The mark [24] stands for this setting: group: maternal, reproductive / reproductive performance / resorptions / resorptions.
Setting [25] is: systemic / in life observation / clinical signs / tremors.
[26] abbreviates: systemic / in life observation / clinical signs / tremors + reproductive / reproductive performance / aborted / aborted + systemic / ….
[27] abbreviates: group: developmental, developmental / developmental malformation / bone / incomplete ossification + systemic / in life observation / body weight / fetal weight.
Where [28] appears, read: group: maternal, systemic / hematology / hematocrit (hct) / hematocrit (hct) + systemic / hematology / hemoglobin (hgb) / hemoglobin (hgb) + systemic / ….

With `Cl.Nc1ccc(Cl)cc1` [4-Chloroaniline hydrochloride], the LOAEL in data set [1] (setting [14]) was over 30 mg/kg/day; in data set [2], over 80 mg/kg/day; in [3], 6 mg/kg/day; in data set [4] (setting [16]), 15 mg/kg/day. Moreover, the NOAEL in [1] (setting [14]) was at least 30 mg/kg/day; in data set [2] it was at least 80 mg/kg/day; in data set [3] it was 2 mg/kg/day; in [4] (setting [16]), 7.5 mg/kg/day. In addition, the LEL in data set [1] (setting [15]) was found to be 3 mg/kg/day; in data set [2] it was 5 mg/kg/day; in [3], 2 mg/kg/day; in data set [4] (setting [17]) it was 7.5 mg/kg/day. The NEL is under 3 mg/kg/day in [1] (setting [15]), under 5 mg/kg/day in data set [2], under 2 mg/kg/day in data set [3] and under 7.5 mg/kg/day in [4] (setting [17]).

Take `CC(C)N1C(=O)c2ccccc2NS1(=O)=O` [Bentazon]: the LOAEL in data set [5] (discoloration) was determined as 13.1 mg/kg/day; in [6] (setting [20]), 180 mg/kg/day; in data set [7] (setting [22]), 243 mg/kg/day. In addition, the NEL was 3.2 mg/kg/day in [5] (setting [18]), under 9 mg/kg/day in data set [6] (setting [19]) and under 25.3 mg/kg/day in data set [7] (setting [21]). In addition, the no observed adverse effect level (NOAEL) turned out to be 3.2 mg/kg/day in data set [5] (setting [18]), 35 mg/kg/day in data set [6] (setting [20]) and 77.8 mg/kg/day in [7] (setting [22]). Further, the LEL in [5] (discoloration + systemic / in life observation / clinical signs / [other]) was determined as 13.1 mg/kg/day; in data set [6] (setting [19]), 9 mg/kg/day; in [7] (setting [21]), 25.3 mg/kg/day.

For `NC(=O)N1c2ccccc2C=Cc2ccccc21` [Carbamazepine], in [8] (setting [23]), the LEL is 15 mg/kg/day, the lowest-observed-adverse-effect level (LOAEL) is over 30 mg/kg/day, the NEL is under 15 mg/kg/day and the NOAEL is at least 30 mg/kg/day. Further, in data set [8] (setting [24]), the LEL worked out at 15 mg/kg/day, the LOAEL was over 30 mg/kg/day, the NEL is under 15 mg/kg/day and the no observed adverse effect level (NOAEL) is at least 30 mg/kg/day. In data set [9], the LEL is 20 mg/kg/day, the LOAEL is over 20 mg/kg/day, the NEL was under 20 mg/kg/day and the NOAEL was at least 20 mg/kg/day.

Take `CC(C)(C)N(NC(=O)c1ccc(Cl)cc1)C(=O)c1ccccc1` [Halofenozide]: the LEL in [10] (setting [25]) is 20 mg/kg/day; in data set [11] it was 52.7 mg/kg/day; in [12], 11.5 mg/kg/day; in data set [13] (setting [27]), 180 mg/kg/day; in data set [13] (setting [28]), 180 mg/kg/day. Also, the lowest-observed-adverse-effect level (LOAEL) in data set [10] (setting [25]) was 20 mg/kg/day; in [11] it was 52.7 mg/kg/day; in data set [12], 11.5 mg/kg/day; in data set [13] (setting [27]), 180 mg/kg/day; in data set [13] (setting [28]), 180 mg/kg/day. Moreover, the NEL in [10] (setting [26]) was 10 mg/kg/day; in data set [11] it was 5.53 mg/kg/day; in data set [12] it was 4 mg/kg/day; in data set [13] (setting [27]) it was 30 mg/kg/day; in data set [13] (setting [28]) it was 30 mg/kg/day. For the same compound, the NOAEL amounted to 10 mg/kg/day in [10] (setting [26]); 5.53 mg/kg/day in data set [11]; 4 mg/kg/day in data set [12]; 30 mg/kg/day in [13] (setting [27]); 30 mg/kg/day in data set [13] (setting [28]).
